Test [1] concerns XW055. The test is described as follows: Furfural tolerance in tube cultures. It counts as cell-based. The note with it: Escherichia coli, strain XW055, AM1 medium, 50 g/L xylose, 48 h, read-out: minimal inhibitory concentration of furfural. On the procedure: (§1) Furfural toxicity was measured in tube cultures (13 mm by 100 mm) as previously described for ethanol strains (17, 22). For succinate strains, tubes contained 4 ml of AM1 medium with 50 g/L xylose, 50 mM KHCO3, and 100 mM MOPS as a buffer. Tubes were inoculated with starting cell density of 44 mg/L. Cell mass was measured at 550 nm after incubation for 48 h (37° C.).

The test system of test [2] is XW120. The test is described as follows: Furfural tolerance in tube cultures. It is filed as cell-based. The note with it: Escherichia coli, 48 h, read-out: minimal inhibitory concentration of furfural. How it is done:
as §1

For test [3], the system named is XW136. The test is described as follows: Furfural tolerance in tube cultures. It counts as cell-based, Escherichia coli. The note with it: strain XW136 (XW120 with adhE::fucO), AM1 medium, 50 g/L xylose, 48 h. How it is done: as §1
The subject of test [4] is XW129. The test is described as follows: Batch ethanol fermentation in AM1 medium with furfural. To be noted: 15 mM furfural, AM1 mineral salts medium, 100 g/L xylose. It is filed as cell-based, Escherichia coli. How it is done:
(§2) FIGS. 4A-C. Comparison of batch fermentations for the parent LY180 and the plasmid-free, furfural-resistant strain XW129. […] For A (cell mass) and B (ethanol and furfural), fermentations were conducted in mineral salt medium AM1 (100 g/L xylose and 15 mM furfural). Control fermentations without furfural were also included. Fermentations (C) were also conducted using hemicellulose hydrolysate containing 36 g/L total sugar, supplemented with AM1 nutrients and 0.5 mM sodium metabisulfite. Data represent averages of at least 2 experiments with standard deviations.
(§3) Ethanol fermentations with xylose were carried out as previously described (17, 22), with and without furfural. For succinate production from xylose, seed pre-cultures of strains were grown in sealed culture tubes containing AM1 medium (20 g/L xylose, 50 mM KHCO3 and 100 mM MOPS). After incubation for 16 h, pre-inocula were diluted into 500-ml fermentation vessels containing 300 ml AM1 media (100 g/L xylose, 1 mM betaine and 100 mM KHCO3) at an initial density of 6.6 mg dry cell weight. After 24 h growth, these seed cultures were used to provide starting inocula for batch fermentations (AM1 medium, 100 g/L xylose and 100 mM KHCO3). Fermentations were maintained at pH 7.0 by automatic addition of base containing additional CO2 (2.4 M potassium carbonate in 1.2 M potassium hydroxide) as previously described (27). Quantitative analyses of sugars, ethanol, furfural, and succinate were as previously described (17, 27, 38).

In test [5] the test system is LY180. The test is described as above. It is filed as cell-based, Escherichia coli. The note with it: 15 mM furfural, AM1 mineral salts medium, 100 g/L xylose. On the procedure:
as §2, §3

The values that follow come from patent US20150299670A1, “COMBINING GENETIC TRAITS FOR FURFURAL TOLERANCE” (priority 2012, published 2015).

≈ marks a conversion by molar mass, not a printed value.

Turning to `O=Cc1ccco1` [furfural], the MIC in test [1] amounted to 7.5 mM (≈ 721 µg/mL). Besides, the MIC in test [2] stood at 15 mM (≈ 1440 µg/mL). The compound also gave a furfural tolerance in test [3] of 17.5 mM. In test [4], the delay of growth came to 24 h and the “extension of time required to complete fermentation” value was 6 h. Further, the growth and fermentation result in test [5] is “completely blocked”.
